Measured values as given in patent US9783505B2, “Substituted diaminopyrimidyl compounds, compositions thereof, and methods of treatment therewith” (Signal Pharmaceuticals, LLC, priority 2013, dated 2017).

These compounds were tested against T1, His-PKC-theta (Homo sapiens, UniProt Q04759) (assay: PKC-theta Assay (384-well time resolved fluorescence, IMAP TR-FRET)). Details: Table 2; read-out: Act. Level (IC50 in the PKC-theta Assay).
T1 construct: His; purchased Invitrogen
T1 sequence (Q04759 whole entry): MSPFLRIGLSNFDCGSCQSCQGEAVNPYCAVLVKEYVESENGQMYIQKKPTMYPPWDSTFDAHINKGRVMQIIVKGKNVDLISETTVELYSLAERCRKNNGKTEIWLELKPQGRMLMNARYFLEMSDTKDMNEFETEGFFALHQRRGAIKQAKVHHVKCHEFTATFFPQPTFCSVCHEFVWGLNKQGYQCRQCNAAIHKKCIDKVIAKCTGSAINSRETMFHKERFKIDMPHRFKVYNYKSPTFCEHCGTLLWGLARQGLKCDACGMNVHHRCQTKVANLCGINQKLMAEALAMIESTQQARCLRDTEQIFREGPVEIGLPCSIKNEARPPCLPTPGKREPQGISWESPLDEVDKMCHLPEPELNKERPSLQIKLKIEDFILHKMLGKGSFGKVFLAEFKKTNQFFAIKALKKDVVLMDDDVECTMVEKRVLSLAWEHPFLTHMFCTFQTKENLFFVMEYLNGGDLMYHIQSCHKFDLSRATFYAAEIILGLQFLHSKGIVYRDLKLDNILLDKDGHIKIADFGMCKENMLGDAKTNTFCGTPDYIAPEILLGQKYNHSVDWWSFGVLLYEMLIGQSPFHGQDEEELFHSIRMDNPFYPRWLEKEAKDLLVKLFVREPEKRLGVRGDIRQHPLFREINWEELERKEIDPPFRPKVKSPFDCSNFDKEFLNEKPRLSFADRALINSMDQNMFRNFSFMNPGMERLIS
Format: biochemical
Method: PKC-theta Assay. A 384-well time resolved fluorescence assay was used to monitor PKC-theta activity. The PKC-theta assay was run in the following assay buffer: 50 mM HEPES pH 7.6, 10 mM MgCl2, 1 mM DTT, 0.01% Triton X-100, 0.01% BSA and 0.1 mM EDTA. To initiate the reaction, 200 nM of Fam-labeled S6-derived peptide (Molecular Devices) and 10 μM of ATP were mixed with 142 pM of His-PKC-theta (Invitrogen) for a total assay volume of 25 μL in each well. The assay was incubated at room temperature for 2 hours and terminated using a 60 μL/well mixture of Detection Binding Solution: 70% IMAP Progressive Binding Buffer A, 30% IMAP Progressive Binding Buffer B, 1:600 Progressive Binding Reagent, and 1:400 TR-FRET Tb Donor (Molecular Devices). The assay plates were then incubated overnight at room temperature and read on a Perkin-Elmer Envision Reader.
CC1(C)C[C@H](Nc2nc(NCCc3ccc(-n4ccnc4)c(Cl)c3)ncc2C#N)CC[C@@H]1O [Cmpd 180] showed an IC50 of under 0.1 µM. CC1(C)C[C@H](Nc2nc(NCCc3cccc(Cl)c3F)ncc2C#N)CC[C@@H]1O [Cmpd 87] showed an IC50 of under 0.1 µM. CC1(C)[C@@H](O)C[C@H]1Nc1nc(NCCc2ccc(C(F)(F)F)cc2)ncc1C#N [Cmpd 46] gave an IC50 of 0.8 to 2 µM. In the case of COc1cccc(CCNc2ncc(C#N)c(N[C@@H]3CC[C@H](O)C(C)(C)C3)n2)c1OC [Cmpd 96], the IC50 is reported as 0.1 to 0.8 µM. CC1(C)C[C@H](Nc2nc(NCCc3ccc(Oc4ccccc4)cc3)ncc2C#N)CC[C@@H]1O [Cmpd 79] showed an IC50 of 0.1 to 0.8 µM. N#Cc1cnc(NCCc2ccc(-n3ccnc3)c(F)c2)nc1N[C@H]1CC[C@@H](C(N)=O)CC1 [Cmpd 195] showed an IC50 of under 0.1 µM. CC1(C)[C@@H](Nc2nc(NCCc3cccc(Cl)c3)ncc2C#N)C[C@@H]1N [Cmpd 157] gave an IC50 of 0.1 to 0.8 µM. Work on Cc1nnnn1-c1ccccc1CNc1ncc(C(F)(F)F)c(NC2CCC(O)C(C)(C)C2)n1 (stereo not drawn) [Cmpd 2] yielded an IC50 of under 0.1 µM. Work on Cc1nnnn1-c1ccccc1CNc1ncc(C(F)(F)F)c(N[C@H]2CC[C@@H](O)C(C)(C)C2)n1 [Cmpd 24] yielded an IC50 of 2 to 10 µM. CC1(C)C[C@H](Nc2nc(NCCc3cccc(S(C)(=O)=O)c3)ncc2C#N)CC[C@@H]1O [Cmpd 173] was tested, and the IC50 was 0.1 to 0.8 µM. Cc1ncc(-c2ccc(CCNc3ncc(C#N)c(N[C@@H]4CC[C@H](O)C(C)(C)C4)n3)cc2)s1 [Cmpd 64] showed an IC50 of under 0.1 µM. Work on Cc1nnnn1-c1ccccc1CNc1ncc(C#N)c(N[C@@H]2CC[C@@H](O)C(C)(C)C2)n1 [Cmpd 18] yielded an IC50 of 2 to 10 µM. Work on CC1(C)C[C@H](Nc2nc(NCCc3ccc(S(C)(=O)=O)cc3)ncc2C#N)CC[C@@H]1O [Cmpd 63] yielded an IC50 of 0.1 to 0.8 µM. N#Cc1cnc(NCCc2cccc(F)c2)nc1N[C@H]1CC[C@@H](O)CC1 [Cmpd 198] showed an IC50 of 0.1 to 0.8 µM. Work on COc1cccc(F)c1CNc1ncc(C#N)c(N[C@H]2CC[C@@H](O)CC2)n1 [Cmpd 22] yielded an IC50 of 2 to 10 µM. CC1(C)[C@@H](Nc2nc(NCCc3cccc(Cl)c3)ncc2C#N)C[C@H]1C(N)=O [Cmpd 164] was tested, and the IC50 was 0.1 to 0.8 µM. Work on CC1(C)[C@@H](O)C[C@H]1Nc1nc(NCCc2ccc(C#N)c(C(F)(F)F)c2)ncc1C#N [Cmpd 141] yielded an IC50 of 0.1 to 0.8 µM. CC(=O)Nc1ccc(CCNc2ncc(C#N)c(N[C@@H]3CC[C@H](O)C(C)(C)C3)n2)cc1 [Cmpd 130] showed an IC50 of 0.1 to 0.8 µM. CC1(C)C[C@H](Nc2nc(NCCc3ccc(CO)cc3)ncc2C#N)CC[C@@H]1O [Cmpd 57] was tested, and the IC50 was 0.1 to 0.8 µM. CC1(C)C[C@H](Nc2nc(NCC(=O)c3ccc(Cl)cc3)ncc2C#N)CC[C@@H]1O [Cmpd 81] was tested, and the IC50 was 0.1 to 0.8 µM. CC1(C)C[C@H](Nc2nc(NCCc3ccc(OCCF)cc3)ncc2C#N)CC[C@@H]1O [Cmpd 171] showed an IC50 of under 0.1 µM. CC1(C)C[C@H](Nc2nc(NCCc3ccc(S(N)(=O)=O)c(Cl)c3)ncc2C#N)CC[C@@H]1O [Cmpd 186] was tested, and the IC50 was under 0.1 µM. CC1(C)C[C@H](Nc2nc(NCCc3cc(F)cc(Cl)c3)ncc2C#N)CC[C@@H]1O [Cmpd 184] gave an IC50 of under 0.1 µM. CC(C)(CNc1ncc(C#N)c(N[C@@H]2C[C@H](O)C2(C)C)n1)c1cccc(Cl)c1 [Cmpd 40] gave an IC50 of 2 to 10 µM. Compound CC1(C)[C@H](N)C[C@H]1Nc1nc(NCCc2cccc(Cl)c2)ncc1C#N [Cmpd 158] has an IC50 of 0.8 to 2 µM. For CC1(C)[C@@H](O)C[C@H]1Nc1nc(NCCc2cccc3ccccc23)ncc1C#N [Cmpd 128], the IC50 was 0.1 to 0.8 µM. In the case of CC1(C)[C@@H](O)C[C@H]1Nc1nc(NCCc2cccc(Cl)c2)ncc1C#N [Cmpd 86], the IC50 is reported as under 0.1 µM. CN(C)c1ccc(CCNc2ncc(C#N)c(N[C@@H]3CC[C@H](O)C(C)(C)C3)n2)cc1 [Cmpd 129] gave an IC50 of 0.1 to 0.8 µM. CC1(C)C[C@H](Nc2nc(NCCc3cccc(C#N)c3)ncc2C#N)CC[C@@H]1O [Cmpd 166] gave an IC50 of 0.8 to 2 µM. Compound COc1cccc(CCNc2ncc(C#N)c(N[C@@H]3CC[C@H](O)C(C)(C)C3)n2)c1 [Cmpd 31] has an IC50 of under 0.1 µM. For Cc1cc(C)n(-c2ccc(CCNc3ncc(C#N)c(N[C@@H]4C[C@H](O)C4(C)C)n3)cc2)n1 [Cmpd 121], the IC50 was 0.8 to 2 µM. In the case of CC1(C)[C@@H](O)C[C@H]1Nc1nc(NCCc2ccc(C#N)c(F)c2)ncc1C#N [Cmpd 147], the IC50 is reported as 0.1 to 0.8 µM. In the case of CC1(C)C[C@H](Nc2nc(NCCc3ccc(C#N)c(Cl)c3)ncc2C#N)CC[C@@H]1O [Cmpd 139], the IC50 is reported as 0.1 to 0.8 µM. Compound CN1CCN(c2ccccc2CNc2ncc(C#N)c(N[C@H]3CC[C@@H](O)CC3)n2)CC1 [Cmpd 27] has an IC50 of 2 to 10 µM. CC1(C)[C@@H](O)C[C@H]1Nc1nc(NCCc2ccc(Cl)c(Cl)c2)ncc1C#N [Cmpd 107] was tested, and the IC50 was 0.1 to 0.8 µM. CC1(C)[C@@H](O)C[C@H]1Nc1nc(NCCc2ccc(C#N)cc2)ncc1C#N [Cmpd 38] was tested, and the IC50 was 0.1 to 0.8 µM.

Same assay, conditions: read-out: Act. Level (IC50 in the PKC-theta Assay)
Work on N#Cc1cnc(NCc2ccccc2Oc2ccccc2)nc1N[C@H]1CC[C@@H](O)CC1 [Cmpd 118] yielded an IC50 of 0.1 to 0.8 µM. CC1(C)C[C@H](Nc2nc(NCCC3C(=O)Nc4ccccc43)ncc2C#N)CC[C@@H]1O (stereo partly drawn) [Cmpd 247] gave an IC50 of under 0.1 µM. For Cc1cccc(Oc2ncncc2CNc2ncc(C#N)c(N[C@H]3CC[C@@H](O)CC3)n2)c1 [Cmpd 45], the IC50 was under 0.1 µM. CC(C)c1ncncc1CNc1ncc(C#N)c(N[C@H]2C[C@@H](CO)C2(C)C)n1 [Cmpd 140] gave an IC50 of 0.1 to 0.8 µM. Work on CC(C)c1ncncc1CNc1ncc(C#N)c(N[C@H]2C[C@@H](O)C2(C)C)n1 [Cmpd 119] yielded an IC50 of 0.1 to 0.8 µM. In the case of Cc1ccc(Oc2ncncc2CNc2ncc(C#N)c(N[C@H]3CC[C@@](C)(O)CC3)n2)cc1 [Cmpd 28], the IC50 is reported as under 0.1 µM. CC1(C)C[C@H](Nc2nc(NCCc3c[nH]c4ccc(OC(F)(F)F)cc34)ncc2C#N)CC[C@@H]1O [Cmpd 171] showed an IC50 of 2 to 10 µM. CC1(C)[C@@H](O)C[C@H]1Nc1nc(NCc2cncnc2OCC(F)F)ncc1C(F)(F)F [Cmpd 7] was tested, and the IC50 was under 0.1 µM. CCc1ncncc1CNc1ncc(C#N)c(N[C@@H]2C[C@@H](O)C2(C)C)n1 [Cmpd 128] showed an IC50 of 0.1 to 0.8 µM. N#Cc1cnc(NCCc2c[nH]c3ccc(F)cc23)nc1N[C@H]1CC[C@@H](C(N)=O)CC1 [Cmpd 178] gave an IC50 of under 0.1 µM. For N#Cc1cnc(NCc2cnccc2C(F)(F)F)nc1NC12CC3CC(CC(O)(C3)C1)C2 [Cmpd 124], the IC50 was 0.8 to 2 µM. In the case of C[C@]1(O)CC[C@@H](Nc2nc(NCc3cncnc3-c3ccccc3)ncc2C(F)(F)F)CC1 [Cmpd 80], the IC50 is reported as under 0.1 µM. Work on CC1(C)[C@H](CO)C[C@H]1Nc1nc(NCc2cnccc2C(F)(F)F)ncc1C(F)(F)F [Cmpd 66] yielded an IC50 of under 0.1 µM. With CC1(C)[C@H](CO)C[C@H]1Nc1nc(NCc2cnccc2C(F)(F)F)ncc1C#N [Cmpd 51] the IC50 was under 0.1 µM. For CC1(C)C[C@H](Nc2nc(NCCc3c[nH]c4cc(OC(F)(F)F)ccc34)ncc2C#N)CC[C@@H]1O [Cmpd 170], the IC50 was 0.1 to 0.8 µM. For COC1CC(Nc2nc(NCc3cnccc3C(F)(F)F)ncc2C(F)(F)F)C1(C)C (stereo not drawn) [Cmpd 103], the IC50 was 0.1 to 0.8 µM. For O[C@H]1CC[C@@H](Nc2nc(NCc3cncnc3-c3ccccc3)ncc2C(F)(F)F)CC1 [Cmpd 76], the IC50 was under 0.1 µM. Compound O[C@H]1C[C@H](Nc2nc(NCc3cnccc3C(F)(F)F)ncc2C(F)(F)F)C1 [Cmpd 94] has an IC50 of 0.1 to 0.8 µM. For COC1CC(Nc2nc(NCc3cnccc3C(F)(F)F)ncc2C(F)(F)F)C1(C)C (stereo not drawn) [Cmpd 74], the IC50 was under 0.1 µM. CC1(C)[C@@H](O)C[C@H]1Nc1nc(NCCCn2ccnc2)ncc1C#N [Cmpd 188] was tested, and the IC50 was 2 to 10 µM. Cc1cc(C)n(CCNc2ncc(C#N)c(N[C@@H]3CC[C@H](O)C(C)(C)C3)n2)n1 [Cmpd 198] showed an IC50 of 2 to 10 µM. For CC1(C)[C@H](CO)C[C@@H]1Nc1nc(NCc2c[n+]([O-])ccc2C(F)(F)F)ncc1C(F)(F)F [Cmpd 141], the IC50 was 0.8 to 2 µM. Work on Cc1[nH]c2ccccc2c1CCNc1ncc(C#N)c(N[C@@H]2CC[C@H](O)C(C)(C)C2)n1 [Cmpd 168] yielded an IC50 of 0.1 to 0.8 µM. Work on CC1(C)[C@@H](O)C[C@H]1Nc1nc(NCc2cnccc2C(F)(F)F)ncc1C(F)(F)F [Cmpd 24] yielded an IC50 of under 0.1 µM. CC1(C)[C@H](O)C[C@@H]1Nc1nc(NCc2cnccc2C(F)(F)F)ncc1C(F)(F)F [Cmpd 120] was tested, and the IC50 was 0.1 to 0.8 µM. CC(C)(CO)CNc1nc(NCc2cnccc2C(F)(F)F)ncc1C#N [Cmpd 129] showed an IC50 of 0.1 to 0.8 µM. Work on CC(F)(F)COc1ncncc1CNc1ncc(C#N)c(NC2C[C@@H](O)C2(C)C)n1 (stereo partly drawn) [Cmpd 88] yielded an IC50 of under 0.1 µM. Compound N#Cc1cnc(NCCc2ccc3ccccc3n2)nc1N[C@H]1CC[C@@H](O)CC1 [Cmpd 150] has an IC50 of 2 to 10 µM. Work on C[C@]1(O)CC[C@@H](Nc2nc(NCc3cncnc3-c3ccccc3)ncc2C#N)CC1 [Cmpd 84] yielded an IC50 of under 0.1 µM. For Cc1ccc(Oc2ncncc2CNc2ncc(C(F)(F)F)c(N[C@H]3CC[C@@H](O)CC3)n2)cc1 [Cmpd 19], the IC50 was under 0.1 µM. CC(C)c1ncncc1CNc1ncc(C#N)c(N[C@H]2CC[C@@](C)(O)CC2)n1 [Cmpd 56] gave an IC50 of under 0.1 µM. With Cc1ccc(CCNc2ncc(C#N)c(N[C@@H]3CC[C@H](O)C(C)(C)C3)n2)o1 [Cmpd 192] the IC50 was 0.1 to 0.8 µM. CC1(C)C[C@H](Nc2nc(NCCc3c[nH]c4c(F)cccc34)ncc2C#N)CC[C@@H]1O [Cmpd 182] showed an IC50 of under 0.1 µM. CC1(C)C(O)C[C@@H]1Nc1nc(NCc2cncnc2OCCC(F)(F)F)ncc1C#N (stereo partly drawn) [Cmpd 107] gave an IC50 of 0.1 to 0.8 µM. For C[C@]1(O)CC[C@@H](Nc2nc(NCc3cnccc3C(F)(F)F)ncc2C(F)(F)F)CC1 [Cmpd 46], the IC50 was under 0.1 µM. CCOc1ncncc1CNc1ncc(C#N)c(N[C@@H]2CC[C@H](O)C(C)(C)C2)n1 [Cmpd 37] showed an IC50 of under 0.1 µM. Work on CC1(C)[C@@H](Nc2nc(NCc3c[n+]([O-])ccc3C(F)(F)F)ncc2C(F)(F)F)C[C@@H]1O [Cmpd 139] yielded an IC50 of 0.1 to 0.8 µM. For CC1(C)[C@H](O)C[C@@H]1Nc1nc(NCc2cncnc2-c2ccc(F)cc2)ncc1C#N [Cmpd 133], the IC50 was 0.1 to 0.8 µM. Cc1[nH]c2c(F)cc(F)cc2c1CCNc1ncc(C#N)c(N[C@@H]2CC[C@H](O)C(C)(C)C2)n1 [Cmpd 167] showed an IC50 of 0.1 to 0.8 µM.
